{"source": "patent US20050033056A1", "about": "“Hydroxylated indole derivatives and uses thereof” (priority 2001, published 2005)", "key": {"[1]": {"test_system": "CYP1A1/2", "test": "CYP induction in primary human hepatocytes, Western immunoblotting: CYP1A1/2", "format": "cell-based", "conditions": "TCDD 0.4 μM, 72 hours", "experimental": "Upon receiving a primary culture of human hepatocytes in 6-well plates, the culture medium containing streptomycin/penicillin was refreshed (2 ml/well). […] Compound 1 stock solution was added to the culture medium at a 1:400 ratio (v/v). The culture medium and testing compounds were replenished every 24 hours.\nAt the end of the treatment, the cells were harvested into 1 mL of phosphate-buffered saline (PBS) after washing twice. The cells were precipitated by centrifugation, and were resuspended in PBS (approximately 50 μL). The sample preparation, after mixing with […] of Laemmli buffer (62.5 mM Tris-HCl containing 2% SDS, 25% glycerol, and 0.01% bromophenol, pH 6.8) and being rocked for 2-4 hours, was mixed with 10 μL of 2-mercaptoethanol, and heated at 90° C. for 10 minutes before electrophoresis.\nProteins were resolved in a 12% SDS-PAGE gel using a mini gel apparatus at a constant voltage ([…]) for 70-80 minutes, and transferred onto a polyvinylidene difluoride (PVDF) membrane using a membrane-transferring unit at a constant voltage ([…]) for 60 minutes. The membrane was blocked by 5% non-fat dried milk (NFDM) blotting buffer (PBS containing 0.05% Tween 20) at 4° C. overnight. […] CYP proteins were detected by […] using an X-ray developer."}, "[2]": {"target": "CYP2C19 (Homo sapiens, UniProt P33261)", "sequence (P33261 whole entry)": "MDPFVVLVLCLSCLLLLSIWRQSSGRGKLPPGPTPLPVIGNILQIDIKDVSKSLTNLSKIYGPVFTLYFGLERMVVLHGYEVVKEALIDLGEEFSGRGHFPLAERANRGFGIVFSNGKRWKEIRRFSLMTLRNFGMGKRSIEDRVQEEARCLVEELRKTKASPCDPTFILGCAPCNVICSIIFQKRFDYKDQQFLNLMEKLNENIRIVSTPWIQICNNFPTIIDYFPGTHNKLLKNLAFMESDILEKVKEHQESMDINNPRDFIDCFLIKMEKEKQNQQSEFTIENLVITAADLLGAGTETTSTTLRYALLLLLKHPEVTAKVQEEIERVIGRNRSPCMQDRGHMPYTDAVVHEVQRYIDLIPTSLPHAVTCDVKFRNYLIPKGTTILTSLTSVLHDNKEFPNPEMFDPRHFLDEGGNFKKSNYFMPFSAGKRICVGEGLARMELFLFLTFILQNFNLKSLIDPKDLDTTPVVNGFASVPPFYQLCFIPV", "test": "Compound 1 metabolism / metabolite formation by recombinant CYP2C19", "format": "in vitro ADME", "design": "purchased Gentest Corp. (Woburn, Mass.); host or cells: insect cells (microsomal preparation)", "experimental": "(§1) The metabolism of Compound 1 was determined by the disappearance of Compound 1 or the appearance of Compound 1 metabolites in reaction mixtures as compared to respective controls. Compound 1 was incubated in the reconstituted in vitro reaction systems containing pooled human liver S9 fractions, microsomal preparations, or recombinant hepatic CYP forms, including CYP1A2, CYP2C9, CYP2C19, CYP2D6, CYP2E1, and CYP3A4. The reaction mixture (total volume of 250 μL) contained 0.5 mg of liver microsomal protein, 50 or 25 pmol of recombinant CYP, and Compound 1 (50-80 μM) in 50 mM Tris buffer containing 15 mM MgCl2 (pH 7.4). After incubating at 37° C. with gentle shaking for 1 minute, the reaction was initiated by adding 25 μL of NADPH solution (20 mg/mL), and was carried out for 1 hour. The reaction was terminated by quickly cooling the test tube on ice, followed by the addition of an equal volume of 100% methanol. The samples were centrifuged in a desktop centrifuge at 14,000 rpm for 5 minutes, and the supernatants were filtered through syringe filters (13 mm, 0.45 μm). The filtrates were subjected to analysis using LC/MS (ion trap) or LC/MS/MS.\n(§2) 1. LC/MS (LCQ ion trap mass spectrometer, Finnigan Corp., San Jose, Calif.): Hewlett Packard 1100 HPLC system (Waldbronn, Germany) consisted of a binary pump, an autosampler, a column compartment unit, and an online variable wavelength UV detector (VWD). The detector was monitored at 270 nm, which is the UVmax of Compound 1 predetermined by scanning between 225-400 nm using a photodiode array detector (PDA). The metabolites were separated on a Hewlett Packard Eclipse C18 column (150×2.1 mm). The mobile phases were 10 nmM ammonium acetate at pH 4.8 (A) and acetonitrile (B). The gradient (B) was 10% (0-6 minutes), 22% (12-22 minutes), 90% (25-30 minutes), and 10% (31 minutes and after). The flow rate was 0.25 mL/minute. Software Navigator (Version 1.2, Finnigan Corp.) was used to control the HPLC and MS and to acquire the data. The MS was operated at positive electrospray ionization (ESI) with 5.2 kV ionization potential and 220° C. heated capillary temperature. The product ion spectra were generated under 24V collision energy, which was optimized for the fragmentation of Compound 1.\n2. LC/MS/MS (SCIEX API2000 triple quadrupole mass spectrometer, PE Biosystem, Foster City, Calif.): The same HPLC system described above was coupled with a tandem mass spectrometer. The metabolites were separated on a Sulpelco Discovery C18 column (150×2.1 mm), and the mobile phase described previously was run at 1.0 mL/min with a 1:10 split. The gradient (B) was 20% (0-6 minutes), 60% (14-18 minutes), 95% (20-24 minutes), and 20% (25 minutes and after). The operation of the HPLC and the MS/MS was controlled by MacChrom (Version 1.6, PE Biosystem). […]"}, "[3]": {"target": "CYP2D6 (Homo sapiens, UniProt P10635)", "sequence (P10635 whole entry)": "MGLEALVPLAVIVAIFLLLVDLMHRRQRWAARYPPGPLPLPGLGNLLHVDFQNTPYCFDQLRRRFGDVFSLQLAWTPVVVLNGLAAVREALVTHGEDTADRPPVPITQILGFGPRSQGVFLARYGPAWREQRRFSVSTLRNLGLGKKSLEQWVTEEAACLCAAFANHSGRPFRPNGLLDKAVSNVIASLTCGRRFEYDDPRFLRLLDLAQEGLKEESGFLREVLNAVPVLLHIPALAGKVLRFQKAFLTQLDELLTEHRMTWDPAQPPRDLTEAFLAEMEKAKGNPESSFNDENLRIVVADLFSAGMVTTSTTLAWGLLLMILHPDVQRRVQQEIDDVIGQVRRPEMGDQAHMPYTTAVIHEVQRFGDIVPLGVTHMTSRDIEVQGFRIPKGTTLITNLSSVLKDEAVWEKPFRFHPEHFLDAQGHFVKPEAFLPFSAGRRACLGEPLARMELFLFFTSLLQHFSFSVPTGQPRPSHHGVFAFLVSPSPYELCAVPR", "test": "Compound 1 metabolism / metabolite formation by recombinant CYP2D6", "format": "in vitro ADME", "design": "purchased Gentest Corp. (Woburn, Mass.); host or cells: insect cells (microsomal preparation)", "conditions": "recombinant CYP2D6, NADPH", "experimental": "as §1\nas §2, with “The MS was operated at positive electrospray ionization (ESI) with 5.2 kV ionization potential and 220° C. heated capillary temperature. The product ion spectra were generated under 24V collision energy, which was optimized for the fragmentation of Compound 1.” left out"}, "[4]": {"test_system": "pooled human liver microsomal preparations (HLM)", "test": "Compound 1 metabolism / metabolite formation in reconstituted system with pooled HLM", "format": "in vitro ADME", "conditions": "estimated by UV absorbance at 270 nm, metabolite formed or Compound 1 left after 1 hour with NADPH", "experimental": "as §1\n1. […] The detector was monitored at 270 nm, which is the UVmax of Compound 1 predetermined by scanning between 225-400 nm using a photodiode array detector (PDA). […]"}, "[5]": {"target": "CYP3A4 (Homo sapiens, UniProt P08684)", "sequence (P08684 whole entry)": "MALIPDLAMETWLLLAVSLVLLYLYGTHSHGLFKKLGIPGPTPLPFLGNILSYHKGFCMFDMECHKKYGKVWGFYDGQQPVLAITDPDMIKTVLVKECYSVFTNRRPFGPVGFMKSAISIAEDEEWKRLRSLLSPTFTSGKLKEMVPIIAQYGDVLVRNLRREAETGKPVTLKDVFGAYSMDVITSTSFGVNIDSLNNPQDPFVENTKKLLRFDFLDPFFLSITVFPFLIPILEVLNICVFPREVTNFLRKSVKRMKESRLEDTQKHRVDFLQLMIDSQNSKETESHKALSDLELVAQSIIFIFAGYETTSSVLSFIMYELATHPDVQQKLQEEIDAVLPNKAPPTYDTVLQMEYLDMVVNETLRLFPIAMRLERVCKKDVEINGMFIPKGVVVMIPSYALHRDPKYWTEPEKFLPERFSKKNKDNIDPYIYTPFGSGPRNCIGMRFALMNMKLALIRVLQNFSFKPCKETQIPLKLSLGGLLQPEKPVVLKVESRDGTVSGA", "test": "Compound 1 metabolism / metabolite formation by recombinant CYP3A4", "format": "in vitro ADME", "design": "purchased Gentest Corp. (Woburn, Mass.); host or cells: insect cells (microsomal preparation)", "conditions": "recombinant CYP3A4; estimated by UV absorbance at 270 nm; metabolite formed or Compound 1 left after 1 hour with NADPH", "experimental": "as §1\nas §2, with “The MS was operated at positive electrospray ionization (ESI) with 5.2 kV ionization potential and 220° C. heated capillary temperature. The product ion spectra were generated under 24V collision energy, which was optimized for the fragmentation of Compound 1.” left out"}}, "data": [{"smiles": "Clc1cc2c(cc1Cl)Oc1cc(Cl)c(Cl)cc1O2", "note": "[TCDD, 2,3,7,8-tetrachlorodibenzo-p-dioxin, reference compound]", "values": [{"measurement": "expression of CYP1A1/2 (Western immunoblotting), positive control", "setting": "[1]", "result": "elevated expressions"}]}, {"smiles": "CNC(=O)Cc1ccc2ccn(C3CCNCC3)c2c1", "note": "[Compound M4]", "values": [{"measurement": "formation of the metabolite from Compound 1 by CYP2C19 (in words)", "setting": "[2]; recombinant CYP2C19, NADPH", "result": "formed"}, {"measurement": "Rel. Amount (%)", "setting": "[2]; recombinant CYP2C19, estimated by UV absorbance at 270 nm, metabolite formed or Compound 1 left after 1 hour with NADPH", "result": 20, "unit": "%"}, {"measurement": "formation of the metabolite from Compound 1 by CYP2D6 (in words)", "setting": "[3]", "result": "formed"}, {"measurement": "Rel. Amount (%)", "setting": "[4]", "result": 21, "unit": "%"}, {"measurement": "Rel. Amount (%)", "setting": "[5]", "result": 31, "unit": "%"}]}]}
